Source: patent US12214008B2, “Protein interfaces” (SyntheX, Inc., priority 2016, dated 2025)

What was measured:
A549 xenograft = test: athymic mouse A549 xenograft model; type: in vivo, mice
Protocol: Female athymic nu/nu mice (6-8 weeks old) were purchased from Simonsen labs (n=12) and were housed at the Murigenics vivarium in Vallejo. The mice were acclimated to the setting of the vivarium for 5 days and maintained on a standard chow diet; 12:12 dark/light cycle; and group housed (3 mice per cage) in hepa-filtered cages. After acclimation, each mouse was injected subcutaneously (lower left abdominal flank) with 5×10^6 A549 (ATCC: CCL-185) cells mixed with 1:1 (v/v) with Matrigel solution. When the tumors reached a volume of ˜100 mm3, the mice were divided into separate treatment groups for the desired treatments. Experiments using both intra-tumoral (IT) and intraperitoneal (IP) administration were performed and the data are reported in FIG. 19.
Mice prepared as described above were divided into 4 groups: • Group 1: were not treated with anything (n=3) • Group 2: received an intra-tumoral injection of 50 microliters of Phosphate Buffered Saline (mock) (n=3) • Group 3: received an intra-tumoral injection of 50 microliters of 10 mg/ml compound 10 in Phosphate Buffered Saline (n=3) • Group 4: received an intra-tumoral injection of 50 microliters of 20 mg/ml compound 10 in Phosphate Buffered Saline (n=3)
The 50 microliter injections were carried out with a (30 g needle). The injections were administered on day zero and then again on day 3. The length (L) and the width (W) of the tumor mass was measured with a Vernier caliper and the tumor volume (V) was calculated as V=(L×W^2)/2. The relative tumor volume of each tumor mass on each measurement day was normalized against the initial volume of the same mass on day zero right before initiation of injections. […]
The injections were carried out with a 30 g needle. […] The length (L) and the width (W) of the tumor mass was measured with a Vernier caliper and the tumor volume (V) was calculated as V=(L×W^2)/2. […]

SSP-25 cells = test: xCELLigence cell death assay; type: cell-based; settings: 10 μM compound 10 alone
Protocol: Further, singly-dosed cells continued to recover, which indicated reduced general cytotoxicity of the compound in the media or the lysed cells.
(§1) To optimize cellular activity, compounds were tested in xCELLigence cell death assays against various cell lines. An example of the workflow used is shown using A549 cells and compound 10 in FIGS. 15 and 16. […] Data from xCELLigence traces at different compound concentrations from FIG. 15 was then used to generate a dose-response curve, which was then subjected to nonlinear regression using a sigmoidal dose-response model to generate IC50s and R2 values for cell death for each compound/cell line combination (FIG. 16).
To further investigate the hypothesis that peptide binding to RAD51 in cells causes cell death via increases in intracellular free calcium levels, compound 10 alone and in combination with two different intracellular calcium chelators (1,2-Bis(2-aminophenoxy) ethane-N,N,N′,N′-tetraacetic acid tetrakis(acetoxymethyl ester) aka “BAPTA-AM”, and ammoniated ruthenium oxychloride aka “ruthenium red”) was tested in an xCELLigence™ cell death assay as in Example 3. The intracellular calcium chelators alone were also evaluated on the cells.

A549 cells = test: xCELLigence cell death assay; type: cell-based; settings: FIG. 15
Protocol: as §1

RAD51 = molecular target: T1, RAD51 (Homo sapiens, UniProt Q06609); test: microscale thermophoresis; type: binding
T1 sequence (Q06609 1-339): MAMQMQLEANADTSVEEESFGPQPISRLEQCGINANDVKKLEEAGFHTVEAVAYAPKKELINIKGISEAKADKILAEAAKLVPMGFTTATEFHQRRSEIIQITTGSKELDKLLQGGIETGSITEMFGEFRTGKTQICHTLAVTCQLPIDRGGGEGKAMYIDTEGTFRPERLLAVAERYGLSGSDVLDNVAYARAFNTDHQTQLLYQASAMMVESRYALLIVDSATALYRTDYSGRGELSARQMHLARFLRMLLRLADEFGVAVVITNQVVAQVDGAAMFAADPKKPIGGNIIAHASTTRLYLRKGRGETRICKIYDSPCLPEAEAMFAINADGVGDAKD
Protocol: To test the interaction between calcium binding and peptide binding to RAD51, the Kds of active (Compound 5, 10) peptides for RAD51 were tested by a microscale thermophoresis assay, and the Kd of compound 5 was additionally performed in the presence of 1 mM calcium.
Microscale thermophoresis was performed as previously described (see, for e.g. Jerabek-Willemsen, M., Wienken, C. J., Braun, D., Baaske, P. & Duhr, S. Molecular interaction studies using microscale thermophoresis. Assay Drug Dev. Technol. 9, 342-353 (2011)). The affinity of the Compound was measured using the Monolith NT.115 from Nanotemper Technologies. Rad51 was fluorescently labelled according to the manufacturer's protocol and the labelled protein used for each assay was about 500 nM. A solution of unlabelled peptide was diluted for appropriate serial concentration gradient. The samples were loaded into silica capillaries (Polymicro Technologies). Measurements were performed at room temperature in buffer containing PBS, 0.1% Tween 20, 0.5 mM ATP, 2.5 uM ssDNA, with 1 mM CaCl2 (when mentioned). Measurements were done using 12% LED power and 60% MST power. The assays were repeated three times for each affinity measurement. Data analyses were performed using Nanotemper Analysis software and OriginPro 8.0 software provided by the manufacturer.

Kd (RAD51; PBS): 8.55 nM
Kd (RAD51; without added calcium): ~8 nM
SMILES: CSCC[C@@H](NC(=O)[C@@H](CC(C)C)NC(C)=O)C(=O)N[C@H](CCCNC(=N)N)C(=O)N[C@H](CO)C(=O)N[C@@H](C(=O)N[C@H](CCCNC(=N)N)C(=O)N[C@H](CC(C)C)C(=O)N[C@H](CCCNC(=N)N)C(=O)N[C@@H](C(=O)NCC(=O)N[C@H](CC(C)C)C(=O)N[C@H](CCCNC(=N)N)C(=O)N[C@H](CCCCN)C(=O)N[C@H](CCCNC(=N)N)C(=O)N[C@H](CCCNC(=N)N)C(=O)N[C@H](CCCNC(=N)N)C(=O)N[C@H](CCCNC(=N)N)C(=O)N[C@H](CCCNC(=N)N)C(=O)N[C@H](CCCNC(=N)N)C(=O)N[C@H](CCCNC(=N)N)C(N)=O)C(C)C)C(C)C [Compound 10, Ac-lmrsvrlrvGlrkrrrrrrr-NH2]
relative tumor volume, intra-tumoral dosing (A549 xenograft; 50 microliters of 10 or 20 mg/ml intra-tumoral on day 0 and day 3, measured days 0, 3, 6): measurable decreases in tumor size as early as day 3
relative tumor volume, intra-peritoneal dosing (A549 xenograft; 125 microliters of 3 mg/ml intra-peritoneal on day 7, measured days 0-10): measurable decreases in tumor size as early as 3 days after injection (day 10)
tumor volume (A549 xenograft; FIG. 19, intratumoral and intraperitoneal): significant effects on tumor volume after only a few days of treatment
cell death of SSP-25 cells, compound alone (SSP-25 cells): significant cell death
cell killing of A549 cells (cell index) (A549 cells): cell killing of A549 cells
